In ChEMBL document CHEMBL5661943, “ASAP - In vitro antiviral effect” (2024):
Several values for one entry are separate records, joined by “and”; a condition that tells them apart may be missing. Identical values can stand only once.

Key:
Zika virus [1] = assay: EC50 is reported via analysis of immunofluorescence staining. The assay has been performed by Icahn School of Medicine at Mount Sinai.; type: functional, organism-based, Chlorocebus sabaeus, VeroE6/TMPRSS2; settings: Zika virus
dengue virus type 2 [2] = assay: Functional immunofluorescence assay to measure dose dependent changes in antiviral-drug inhibitory efficacy against Dengue virus type 2 Thailand/16681/84 in Vero E6/TMPRSS2 cells (cotreated with P-gp inhibitor, Elacridar). Cells are treated with antiviral candidates that are serially diluted, following infection, cells are fixed. EC50 is reported via analysis of immunofluorescence staining. The assay has been performed by Icahn School of Medicine at Mount Sinai.; type: organism-based, Chlorocebus sabaeus, VeroE6/TMPRSS2; settings: Dengue virus; for EC90: P-gp concentration 2 uM, P-gp inhibitor Elacidar
Zika virus [3] = assay: Functional CPE-based assay to measure dose dependent changes in antiviral-drug inhibitory efficacy against Zika virus MR766 in Vero E6 miRFP670 cells (cotreated with P-gp inhibitor, CP100356). Cells are treated with antiviral candidates that are serially diluted. EC50 is reported via analysis of MTS assay as a readout of CPE. The assay has been performed by KU Leuven.; type: organism-based, Chlorocebus sabaeus, Vero C1008; settings: for EC90: P-gp concentration 500 nM, P-gp inhibitor CP100356
dengue virus type 2 [4] = assay: Functional assay to measure dose dependent changes in antiviral-drug inhibitory efficacy against Dengue virus type 2 New Guinea C in Vero E6 miRFP670 cells (cotreated with P-gp inhibitor, CP100356). Cells are treated with antiviral candidates that are serially diluted, following infection, cells are fixed. EC50 is reported via analysis of fluorescence intensity using high-content imager. The …; type: organism-based, Chlorocebus sabaeus, Vero C1008; settings: for EC90: Baseline response 0 %, Maximum response 100 %, P-gp concentration 500 nM, P-gp inhibitor CP100356

Structure (SMILES): O=C(NC[C@H]1CCCO1)[C@H](Nc1ccc2c(c1)CNC2)c1cc(Cl)cc(C2CC2)c1
- EC50 (Zika virus [1]; VeroE6/TMPRSS2): > 5.56 µM
- EC90 (Zika virus [1]; VeroE6/TMPRSS2, Maximum measured 140.093 %, Minimum measured 93.076 %, P-gp concentration 2 uM, P-gp inhibitor Elacidar): > 5.56 µM
- EC90 (Zika virus [1]; VeroE6/TMPRSS2, Baseline response 0 %, Hill slope 0.091, Maximum measured 92.664 %, Maximum response 100 %, Minimum measured 73.777 %, P-gp concentration 2 uM, R squared 0.029, P-gp inhibitor Elacidar): > 5.56 µM
- EC50 (dengue virus type 2 [2]; VeroE6/TMPRSS2): > 50 µM
- EC90 (dengue virus type 2 [2]; VeroE6/TMPRSS2, Maximum measured 244.293 %, Minimum measured 137.827 %): > 50 µM
- EC50 (Zika virus [3]; Zika virus, Vero C1008): > 25 µM
- EC90 (Zika virus [3]; Zika virus, Vero C1008, Baseline response 0 %, Hill slope 2.187, Maximum measured 41.665 %, Maximum response 100 %, Minimum measured -0.442 %, R squared 0.938): > 25 µM
- EC50 (dengue virus type 2 [4]; Dengue virus, Vero C1008): > 50 µM
- EC90 (dengue virus type 2 [4]; Dengue virus, Vero C1008, Hill slope -0.736, Maximum measured 108.993 %, Minimum measured 54.851 %, R squared 0.259): > 50 µM

Structure (SMILES): O=C(Nc1ccc2c(n1)CNC2)c1cc(Cl)cc2[nH]ncc12
- EC50 (Zika virus [1]; VeroE6/TMPRSS2): 5.29 µM
- EC90 (Zika virus [1]; VeroE6/TMPRSS2, Baseline response 0 %, Hill slope -0.136, Maximum measured 80.309 %, Maximum response 100 %, Minimum measured 35.788 %, P-gp concentration 2 uM, R squared 0.184, P-gp inhibitor Elacidar): > 50 µM
- EC50 (dengue virus type 2 [2]; VeroE6/TMPRSS2): 33.2 µM
- EC90 (dengue virus type 2 [2]; VeroE6/TMPRSS2, Baseline response 0 %, Hill slope -0.91, Maximum measured 153.42 %, Maximum response 100 %, Minimum measured 44.335 %, R squared 0.461): > 50 µM
- EC50 (Zika virus [3]; Zika virus, Vero C1008): > 50 µM
- EC90 (Zika virus [3]; Zika virus, Vero C1008, Baseline response 0 %, Hill slope 0.276, Maximum measured 8.826 %, Maximum response 100 %, Minimum measured 2.871 %, R squared 0.346): > 50 µM
- EC50 (dengue virus type 2 [4]; Dengue virus, Vero C1008): > 50 µM
- EC90 (dengue virus type 2 [4]; Dengue virus, Vero C1008, Hill slope 0.339, Maximum measured 101.822 %, Minimum measured 73.077 %, R squared 0.116): > 50 µM

Structure (SMILES): Cc1c(C(=O)Nc2cc([C@H]3CCOC3)ccn2)cc(C2CC2)n1C
- EC50 (Zika virus [1]; VeroE6/TMPRSS2): 0.157 µM
- EC90 (Zika virus [1]; VeroE6/TMPRSS2): 49.5 µM
- EC50 (dengue virus type 2 [2]; VeroE6/TMPRSS2): > 50 µM
- EC90 (dengue virus type 2 [2]; VeroE6/TMPRSS2, Maximum measured 144.829 %, Minimum measured 95.742 %): > 50 µM
- EC50 (Zika virus [3]; Zika virus, Vero C1008): > 50 µM
- EC90 (Zika virus [3]; Zika virus, Vero C1008, Maximum measured 3.949 %, Minimum measured -5.577 %): > 50 µM
- EC90 (Zika virus [3]; Zika virus, Vero C1008, Maximum measured -8.54 %, Minimum measured -21.261 %): > 50 µM
- EC90 (dengue virus type 2 [4]; Hill slope 0.336, Maximum measured 108.09 %, Minimum measured 73.455 %, R squared 0.31): > 50 µM
- EC50 (dengue virus type 2 [4]; Dengue virus, Vero C1008): > 50 µM
- EC90 (dengue virus type 2 [4]; Dengue virus, Vero C1008, Hill slope -3.691, Maximum measured 104.755 %, Minimum measured 84.933 %, R squared 0.225): > 50 µM

Structure (SMILES): N[C@H]1Cc2ccc(NC(=O)c3cc(Cl)cc4[nH]ncc34)cc2C1
- EC50 (Zika virus [1]; VeroE6/TMPRSS2): 6.4 µM
- EC90 (Zika virus [1]; VeroE6/TMPRSS2, Baseline response 0 %, Hill slope -0.367, Maximum measured 76.386 %, Maximum response 70 %, Minimum measured 22.981 %, P-gp concentration 2 uM, R squared 0.54, P-gp inhibitor Elacidar): > 50 µM
- EC50 (dengue virus type 2 [2]; VeroE6/TMPRSS2): > 50 µM
- EC90 (dengue virus type 2 [2]; VeroE6/TMPRSS2, Baseline response 0 %, Hill slope -1.504, Maximum measured 137.122 %, Maximum response 100 %, Minimum measured 76.636 %, R squared 0.034): > 50 µM
- EC50 (Zika virus [3]; Zika virus, Vero C1008): > 50 µM
- EC90 (Zika virus [3]; Zika virus, Vero C1008, Baseline response 0 %, Hill slope 8.874, Maximum measured 2.747 %, Maximum response 100 %, Minimum measured -3.726 %, R squared 0.015): > 50 µM
- EC50 (dengue virus type 2 [4]; Dengue virus, Vero C1008): > 50 µM
- EC90 (dengue virus type 2 [4]; Dengue virus, Vero C1008, Hill slope -0.493, Maximum measured 107.038 %, Minimum measured 74.642 %, R squared 0.117): > 50 µM

Structure (SMILES): Cc1c(C(=O)Nc2cc(-c3cccnc3)ccn2)cc(C2CC2)n1C
- EC50 (Zika virus [1]; VeroE6/TMPRSS2): 14.5 µM
- EC90 (Zika virus [1]; VeroE6/TMPRSS2): 32.7 µM
- EC50 (dengue virus type 2 [2]; VeroE6/TMPRSS2): 46 µM
- EC90 (dengue virus type 2 [2]; VeroE6/TMPRSS2, Baseline response 0 %, Hill slope -10.528, Maximum measured 161.281 %, Maximum response 100 %, Minimum measured 29.52 %, R squared 0.091): > 50 µM
- EC90 (Zika virus [3]; Baseline response 0 %, Hill slope 10.672, Maximum measured 18.054 %, Maximum response 100 %, Minimum measured -2.868 %, R squared 0.771): > 50 µM
- EC50 (Zika virus [3]; Zika virus, Vero C1008): > 50 µM
- EC90 (Zika virus [3]; Zika virus, Vero C1008, Baseline response 0 %, Hill slope 1.591, Maximum measured 7.654 %, Maximum response 100 %, Minimum measured -2.289 %, R squared 0.158): > 50 µM
- EC90 (dengue virus type 2 [4]; Hill slope 0.498, Maximum measured 89.901 %, Minimum measured 65.385 %, R squared 0.493): > 6.25 µM
- EC90 (dengue virus type 2 [4]; Hill slope 0.771, Maximum measured 124.592 %, Minimum measured 47.777 %, R squared 0.6): < 0.391 µM
- EC50 (dengue virus type 2 [4]; vero c1008): 0.83 µM and > 6.25 µM
